Experimental data from article PMC7835950 (Frontiers in Chemistry, 2021).
Where two headings read alike, the source gives them in different places.

Biological target: T1, OGDH (Rattus norvegicus, UniProt Q5XI78)
T1 sequence (Q5XI78 41-1023): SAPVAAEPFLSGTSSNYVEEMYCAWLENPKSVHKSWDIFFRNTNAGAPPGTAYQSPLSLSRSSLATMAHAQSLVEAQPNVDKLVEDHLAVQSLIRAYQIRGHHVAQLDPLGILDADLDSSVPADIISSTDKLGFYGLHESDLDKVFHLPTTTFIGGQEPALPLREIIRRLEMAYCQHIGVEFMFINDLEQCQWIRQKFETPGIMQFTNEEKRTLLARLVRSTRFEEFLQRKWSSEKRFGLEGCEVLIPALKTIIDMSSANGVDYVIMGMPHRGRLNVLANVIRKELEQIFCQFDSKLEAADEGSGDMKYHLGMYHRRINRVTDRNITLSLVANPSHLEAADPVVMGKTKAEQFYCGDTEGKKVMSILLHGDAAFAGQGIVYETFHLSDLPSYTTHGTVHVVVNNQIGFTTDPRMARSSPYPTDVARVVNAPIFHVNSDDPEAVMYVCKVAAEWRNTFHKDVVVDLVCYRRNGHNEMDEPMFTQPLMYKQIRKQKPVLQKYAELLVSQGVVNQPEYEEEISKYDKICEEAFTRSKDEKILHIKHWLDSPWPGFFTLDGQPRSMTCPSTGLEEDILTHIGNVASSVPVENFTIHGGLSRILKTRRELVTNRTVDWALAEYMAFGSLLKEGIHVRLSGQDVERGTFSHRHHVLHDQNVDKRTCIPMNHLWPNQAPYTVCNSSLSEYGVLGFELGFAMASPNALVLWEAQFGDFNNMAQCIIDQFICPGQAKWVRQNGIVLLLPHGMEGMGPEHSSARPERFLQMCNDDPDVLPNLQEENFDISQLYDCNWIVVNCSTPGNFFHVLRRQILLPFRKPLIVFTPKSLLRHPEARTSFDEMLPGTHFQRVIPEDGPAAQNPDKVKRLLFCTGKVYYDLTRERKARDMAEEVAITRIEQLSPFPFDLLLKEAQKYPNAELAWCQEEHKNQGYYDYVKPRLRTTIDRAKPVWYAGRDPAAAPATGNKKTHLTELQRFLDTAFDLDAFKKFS
T1 sequence (Q01205 69-454 partner): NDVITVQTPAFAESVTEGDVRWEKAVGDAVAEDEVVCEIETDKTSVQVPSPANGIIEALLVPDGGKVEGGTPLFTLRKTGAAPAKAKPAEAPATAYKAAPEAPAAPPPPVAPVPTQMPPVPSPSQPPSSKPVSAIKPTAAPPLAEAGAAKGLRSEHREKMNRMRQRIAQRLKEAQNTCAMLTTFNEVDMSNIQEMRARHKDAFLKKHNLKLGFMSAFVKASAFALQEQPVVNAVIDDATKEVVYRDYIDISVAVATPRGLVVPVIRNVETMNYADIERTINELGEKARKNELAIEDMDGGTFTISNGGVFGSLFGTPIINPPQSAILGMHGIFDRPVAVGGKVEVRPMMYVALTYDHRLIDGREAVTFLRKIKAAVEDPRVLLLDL
T1 sequence (Q6P6R2 36-509 partner): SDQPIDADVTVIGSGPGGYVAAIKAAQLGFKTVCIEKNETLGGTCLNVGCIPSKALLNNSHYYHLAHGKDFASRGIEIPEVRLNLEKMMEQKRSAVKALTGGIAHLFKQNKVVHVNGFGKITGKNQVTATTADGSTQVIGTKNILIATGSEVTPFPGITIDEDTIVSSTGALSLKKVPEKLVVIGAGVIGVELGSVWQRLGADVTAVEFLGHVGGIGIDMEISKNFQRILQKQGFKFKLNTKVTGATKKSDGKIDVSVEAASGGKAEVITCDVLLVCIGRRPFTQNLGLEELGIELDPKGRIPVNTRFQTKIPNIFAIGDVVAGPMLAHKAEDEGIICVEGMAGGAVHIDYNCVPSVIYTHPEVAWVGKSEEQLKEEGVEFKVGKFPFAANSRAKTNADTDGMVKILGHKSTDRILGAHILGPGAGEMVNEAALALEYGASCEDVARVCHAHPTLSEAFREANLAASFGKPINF
Experiment: OGDH reaction (OG saturation) catalyzed by the enzyme preparation from rat liver
Format: biochemical
Parameters: the tissue fractions with the complexes enriched to a degree allowing for a robust detection of the enzymatic activities, have been used; from tissue
Procedure: Reactions were started by addition of the enzyme preparations to the assay media. The amount of enzyme preparations (0.074 mg protein for the preparation from liver and 0.023 mg protein for the preparation from heart) were chosen to induce the lowest reliably measured reaction rate (ΔA340 = 0.001/min) at 0.01 mM OA without the phosphonates.
Reaction rates were calculated from linear parts of the product accumulation curves (up to 10 min, dependent on the reaction rate), excluding the initial region, where mixing the reagents and solubilization of the preparation affected the optical density.
The former equation describes one type of the active sites. […] The assumption was based on the presence of the two enzymes, OGDH and OADH, in the employed preparations.
The Km and Amax values obtained in independent experiments using the non-linear and linear regression analyses of the experimental data, were averaged and presented as Mean ± Standard Error of Mean.
The values of Ki were determined as the ratio of the corresponding Intercepts to the Slopes. In the two-site model, the Ki(1) and Ki(2) were calculated separately from the linear approximations of Km,1eff/Amax,1eff vs. [I] and Km,2eff/Amax,2eff vs. [I] dependences, respectively. […] The Ki values obtained from the non-linear and linear regression analyses of the experimental data were averaged and presented as Mean ± Standard Error of Mean.

[1] = Eadie-Hofstee, read-out: Ki, EH
[2] = Lineweaver-Burk, read-out: Ki, LB
[3] = Michaelis-Menten approximation, read-out: Ki, MM
[4] = average of MM, LB, EH, read-out: Ki, Average

Compound | Ki [1] [µM] | Ki [2] [µM] | Ki [3] [µM] | Amax ([I] 0.5 µM) | Amax ([I] 2 µM) | Amax ([I] 10 µM) | Amax ([I] 50 µM) | Amax ([I] 200 µM) | Amax ([I] 1000 µM) | Amax ([I] 5000 µM) | Ki [4] [µM] | Ki (Ki, Average, average of MM, LB, EH) [µM] | Ki (Ki, EH, Eadie-Hofstee) [µM] | Ki (Ki, LB, Lineweaver-Burk) [µM] | Ki (Ki, MM, Michaelis-Menten approximation) [µM]
O=C(O)CCCCC(=O)P(=O)(O)O [AP, adipoyl phosphonate] | 326 ± 19 | 361 ± 36 | 405 ± 11 | 0.040 ± 0.001 µmol/min per mg of protein | 0.042 ± 0.001 µmol/min per mg of protein | 0.042 ± 0.001 µmol/min per mg of protein | 0.042 ± 0.001 µmol/min per mg of protein | 0.045 ± 0.001 µmol/min per mg of protein | 0.049 ± 0.001 µmol/min per mg of protein | 0.039 ± 0.004 µmol/min per mg of protein | 364 ± 23 |  |  |  | 
O=C(O)CCCC(=O)P(=O)(O)O [GP, glutaryl phosphonate] | 6.2 ± 0.1 | 5.6 ± 0.1 | 7.3 ± 0.4 |  | 0.045 ± 0.001 µmol/min per mg of protein | 0.045 ± 0.001 µmol/min per mg of protein | 0.044 ± 0.001 µmol/min per mg of protein | 0.066 ± 0.011 µmol/min per mg of protein |  |  | 6.3 ± 0.5 |  |  |  | 
O=C(O)CCC(=O)P(=O)(O)O [SP, succinyl phosphonate] |  |  |  |  |  | 0.043 ± 0.001 µmol/min per mg of protein | 0.041 ± 0.001 µmol/min per mg of protein | 0.038 ± 0.002 µmol/min per mg of protein | 0.019 ± 0.002 µmol/min per mg of protein |  |  | 7.4 ± 1.4 | 7.7 ± 0.1 | 4.9 ± 0.1 | 9.6 ± 0.2
